The text below walks through data of PubChem BioAssay (NCI).

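Tested at 5 concentrations; 48 h exposure; 96-well plates; endpoints linearly interpolated, else capped at highest concentration. Definition used: TGI = concentration required for complete inhibition of growth.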

Some test systems named below: M19-MEL melanoma; KM20L2 colon; DLD-1 colon; SNB-78 CNS; HOP-18 NSCLC; DMS 114 small cell lung; XF 498 CNS; HS 578T breast; MCF7 breast; BT-549 breast; PC-3 prostate.
Common to all, as to test: NCI anticancer screen, dose series, 48 h

For `CC(C(=O)n1nnc2ccccc21)N(c1ccccc1)c1ccccc1` (centres undefined), the TGI with M19-MEL melanoma, in the test on KM20L2 colon, with DLD-1 colon and in the test on SNB-78 CNS was above 100 µM in each case.
For `CC1(Cc2ccccc2)NC(=S)NC1=O` (centres undefined), the TGI in the test on M19-MEL melanoma is above 100 µM; in the test with HOP-18 NSCLC, 8.35 µM; in the test on KM20L2 colon it was above 100 µM; in the test on DLD-1 colon, above 100 µM; with SNB-78 CNS it was above 100 µM; with DMS 114 small cell lung, above 100 µM.
`Cc1cc(N(CCC#N)CCC#N)ccc1/C=C1N=C(/C=C/c2ccccc2)OC(=O)N\1`: the TGI with M19-MEL melanoma, with KM20L2 colon, with DLD-1 colon, with SNB-78 CNS, in the test on XF 498 CNS and in the test with DMS 114 small cell lung was above 100 µM in each case.
`C#CCC(N)(CO)C(=O)O` (centres undefined): the TGI in the test with M19-MEL melanoma, in the test with HOP-18 NSCLC, in the test with DLD-1 colon, with SNB-78 CNS, with XF 498 CNS and in the test with DMS 114 small cell lung was above 100 µM each time.
Turning to `Cl[Si]1(Cl)Oc2ccccc2O[Si](Cl)(Cl)Oc2ccccc2O1`, the TGI in the test on M19-MEL melanoma is 25.3 µM; in the test on KM20L2 colon, above 100 µM; with DLD-1 colon, above 100 µM; in the test on XF 498 CNS, 30.3 µM; in the test with DMS 114 small cell lung, 6.03 µM.
Consider `Cc1ccc(S(=O)(=O)N/N=C(\c2nc3ccc([N+](=O)[O-])cc3[nH]c2=O)C(O)c2ccccc2Cl)cc1` (centres undefined), for which the TGI in the test with M19-MEL melanoma, with HOP-18 NSCLC, in the test with KM20L2 colon, with DLD-1 colon, in the test with SNB-78 CNS and with DMS 114 small cell lung was above 100 µM throughout.
With `CC(=O)OCC1OC(n2cc([N+](=O)[O-])c(=O)[nH]c2=O)C(OC(C)=O)C(OC(C)=O)C1OC(C)=O` (centres undefined), the TGI in the test with M19-MEL melanoma, in the test with HOP-18 NSCLC, with KM20L2 colon, in the test with DLD-1 colon, in the test with XF 498 CNS and in the test with DMS 114 small cell lung was above 100 µM in each case.
For `C=CCC1[C@@H](C(C)(C)C(C(C)=O)C(=O)C(=O)OC)OC(C(C)(C)C)N1C(=O)OC` (some centres undefined), the TGI in the test on M19-MEL melanoma, with HOP-18 NSCLC, in the test with KM20L2 colon, in the test with DLD-1 colon, in the test with SNB-78 CNS and in the test with XF 498 CNS was above 100 µM throughout.
`COc1cc2cnc3c4ccccc4ccc3c2cc1OC`: the TGI with M19-MEL melanoma, in the test on KM20L2 colon, with DLD-1 colon, in the test on SNB-78 CNS, in the test with XF 498 CNS and in the test with DMS 114 small cell lung was above 100 µM throughout.
Regarding `NC(=O)/C=C/C(=O)O`, the TGI with M19-MEL melanoma, with HOP-18 NSCLC, in the test on DLD-1 colon, in the test on SNB-78 CNS and with DMS 114 small cell lung was above 5000 µM throughout.
With `Cc1cc2c(Br)cc(Br)c(O)c2nc1C(=O)c1ccccc1`, the TGI in the test on M19-MEL melanoma was 32.2 µM; in the test with HOP-18 NSCLC it was 70.4 µM; in the test with HS 578T breast, above 100 µM; with KM20L2 colon, 82.5 µM; in the test on DLD-1 colon, above 100 µM; in the test on MCF7 breast, above 100 µM. Also, the TGI in the test on SNB-78 CNS is above 100 µM; with BT-549 breast it was above 100 µM; in the test on PC-3 prostate, above 100 µM; in the test on DMS 114 small cell lung, 97.7 µM.
As for `O=C1C=CC(=O)N1Nc1ccc([N+](=O)[O-])cc1[N+](=O)[O-]`, the TGI with M19-MEL melanoma, in the test on KM20L2 colon, in the test with DLD-1 colon, with SNB-78 CNS and in the test with DMS 114 small cell lung was above 100 µM each time.
Regarding `Cc1cn(C2OC(C)(CO)C(O)C2O)c(=O)[nH]c1=O` (centres undefined), the TGI in the test on M19-MEL melanoma, in the test on HOP-18 NSCLC, in the test with DLD-1 colon and in the test on DMS 114 small cell lung was above 100 µM in each case.
Take `O=C1C=C(O)c2[nH]c(=O)ccc2C1=O`: the TGI with M19-MEL melanoma, in the test with KM20L2 colon, in the test with DLD-1 colon, with SNB-78 CNS and in the test with XF 498 CNS was above 100 µM throughout.
`Cc1nnc(N/N=C(/C(=O)C(C#N)c2ccccc2)C(C#N)c2ccccc2)n1N` (centres undefined): the TGI is 25.2 µM in the test on M19-MEL melanoma; 28.6 µM in the test with HOP-18 NSCLC; above 100 µM in the test on KM20L2 colon; 59.9 µM with DLD-1 colon; above 90 µM in the test on SNB-78 CNS; 13.4 µM in the test on DMS 114 small cell lung.
`Cc1c(C(=O)CSc2nc3ccccc3c(=O)n2-c2ccccc2)c(=O)n(-c2ccccc2)n1C`: the TGI in the test with M19-MEL melanoma, with KM20L2 colon, in the test with DLD-1 colon, in the test on SNB-78 CNS, in the test with XF 498 CNS and in the test on DMS 114 small cell lung was above 100 µM in each case.
As for `COc1ccc(Nc2nc3ccccc3nc2-c2cccs2)cc1`, the TGI in the test on HOP-18 NSCLC, with KM20L2 colon, in the test with DLD-1 colon, with SNB-78 CNS, in the test on XF 498 CNS and in the test on DMS 114 small cell lung was above 100 µM in each case.
For the molecule `O=c1ncccn1C1C=C(CO)C(O)C1O` (centres undefined), the TGI in the test on HOP-18 NSCLC, in the test on KM20L2 colon, in the test on DLD-1 colon, in the test on SNB-78 CNS, in the test on XF 498 CNS and with DMS 114 small cell lung was above 50 µM in each case.
On to `CSc1c(C)c(C)nn1-c1ccccc1`, for which the TGI in the test on KM20L2 colon, in the test on DLD-1 colon, in the test on SNB-78 CNS, with XF 498 CNS and in the test on DMS 114 small cell lung was above 100 µM each time.
`CCOC(=O)/C(=C/c1cccc(OC)c1)N(CC)CC`: the TGI in the test on M19-MEL melanoma, in the test on KM20L2 colon, with SNB-78 CNS, in the test on XF 498 CNS and with DMS 114 small cell lung was above 100 µM throughout.
For `CC1(C)OC2COC3(CNO)OC(C)(C)OC3C2O1` (centres undefined), the TGI with M19-MEL melanoma, with HOP-18 NSCLC, in the test on DLD-1 colon, in the test on SNB-78 CNS and in the test on DMS 114 small cell lung was above 100 µM each time.
